SMILES strings stand for the structures. Numbers after ± are expanded uncertainties.

A short description of data set [1]: refractive index (Na D-line) (dimensionless). To be noted: 298.15 K; 101.33 kPa; Liquid.
For data set [2] the following is noted: for mass density: 298.15 K, 101.33 kPa.

For orientation: refractive index means the speed of light in vacuum divided by its phase velocity in the sample. Broadly, the mass density is mass per unit of volume. As usually defined, the vapor or sublimation pressure is the pressure of vapour in equilibrium with the condensed phase. Consider `CC(C)(C)O` [2-methylpropan-2-ol], for which the refractive index in data set [1] is recorded as 1.3852 ± 0.001. In addition, the mass density in data set [2] (Liquid) is 781.2 ± 2 kg/m3. The “vapor or sublimation pressure” value in data set [2] (354.05 K, Liquid) amounted to 95.23 ± 4.8 kPa; in data set [2] (354.15 K, Liquid), 95.76 ± 4.8 kPa.

In the case of `CCO` [ethanol], in data set [1], the refractive index is on record as 1.3594 ± 0.001. Besides, in data set [2] (Liquid), the mass density amounted to 784.9 ± 2 kg/m3. Moreover, the “vapor or sublimation pressure” value is given as 95.23 ± 4.8 kPa in data set [2] (349.95 K, Liquid) and 95.76 ± 4.8 kPa in data set [2] (350.05 K, Liquid).

Take `CCCCO` [butan-1-ol]: the refractive index in data set [1] worked out at 1.3974 ± 0.001. Further, in data set [2] (Liquid), the mass density turned out to be 805.8 ± 2.1 kg/m3. Besides, the “vapor or sublimation pressure” value in data set [2] (389.45 K, Liquid) is recorded as 95.76 ± 4.8 kPa; in data set [2] (391.55 K, Liquid), 95.23 ± 4.8 kPa.

Consider `Cc1ccccc1O` [2-methylphenol], for which the refractive index in data set [1] was found to be 1.5468 ± 0.001. In data set [2] (Liquid), the mass density was 1046 ± 2.9 kg/m3. Moreover, the “vapor or sublimation pressure” value in data set [2] (461.85 K, Liquid) is recorded as 95.76 ± 4.8 kPa.

`CCCO` [propan-1-ol]: the refractive index in data set [1] came to 1.3837 ± 0.0008. The mass density in data set [2] (Liquid) is given as 799.6 ± 2.2 kg/m3. The “vapor or sublimation pressure” value in data set [2] (368.85 K, Liquid) is on record as 95.23 ± 4.8 kPa; in data set [2] (368.95 K, Liquid) it was 95.76 ± 4.8 kPa.

Regarding `CC(C)O` [propan-2-ol], in data set [1], the refractive index was 1.3752 ± 0.001. In addition, in data set [2] (Liquid), the mass density is given as 781.3 ± 2 kg/m3. Moreover, the “vapor or sublimation pressure” value in data set [2] (353.95 K, Liquid) amounted to 95.23 ± 4.8 kPa; in data set [2] (354.05 K, Liquid), 95.76 ± 4.8 kPa.

For `CC(C)CO` [2-methyl-1-propanol], the refractive index in data set [1] is listed as 1.3939 ± 0.001. Further, the mass density in data set [2] (Liquid) was determined as 797.8 ± 2 kg/m3. Further, the “vapor or sublimation pressure” value is 95.23 ± 4.8 kPa in data set [2] (379.55 K, Liquid) and 95.76 ± 4.8 kPa in data set [2] (379.75 K, Liquid).

In the case of `Cc1ccc(O)cc1` [4-methylphenol], the refractive index in data set [1] amounted to 1.539 ± 0.001. In addition, the mass density in data set [2] (Crystal) worked out at 1155 ± 4 kg/m3. Further, in data set [2] (472.85 K, Liquid), the “vapor or sublimation pressure” value is listed as 95.23 ± 4.8 kPa.

As for `CCC(C)O` (stereo not drawn) [butan-2-ol], in data set [1], the refractive index is 1.3953 ± 0.001. Further, the mass density in data set [2] (Liquid) came to 802.4 ± 2.1 kg/m3. The “vapor or sublimation pressure” value is recorded as 95.23 ± 4.8 kPa in data set [2] (371.15 K, Liquid) and 95.76 ± 4.8 kPa in data set [2] (371.35 K, Liquid).

For the compound `CO` [methanol], the refractive index in data set [1] is 1.3265 ± 0.001. Besides, in data set [2] (Liquid), the mass density was determined as 786.4 ± 2 kg/m3. Further, the “vapor or sublimation pressure” value is reported as 95.23 ± 4.8 kPa in data set [2] (336.15 K, Liquid) and 95.76 ± 4.8 kPa in data set [2] (336.35 K, Liquid).

Values taken from the NIST ThermoML archive (doi:10.1016/j.fluid.2006.03.018).
